Laboratory results: the Kinase Knowledgebase extract (Sharma et al. 2016)

How the values were obtained:
MAPK14 (human) [1] = target: MAPK14 (human) (UniProt Q16539); assay: Inhibition of IL-1 Production in LPS-Stimulated PBMCs; conditions: pbmc
MAPK14 (human) [2] = target: MAPK14 (human) (UniProt Q16539); assay: Inhibition of IL-1 Production in Whole Blood
MAPK14 (human) [3] = target: MAPK14 (human) (UniProt Q16539); assay: Inhibition of IL-6 Production in Whole Blood
MAPK14 (human) [4] = target: MAPK14 (human) (UniProt Q16539); assay: Inhibition of TNF Production in Whole Blood
MAPK14 (human) [5] = target: MAPK14 (human) (UniProt Q16539); assay: Inhibition of TNF-alpha Production in LPS-Stimulated PBMCs; conditions: pbmc

MAPK14 (human), sequence (Q16539 whole entry, looked up): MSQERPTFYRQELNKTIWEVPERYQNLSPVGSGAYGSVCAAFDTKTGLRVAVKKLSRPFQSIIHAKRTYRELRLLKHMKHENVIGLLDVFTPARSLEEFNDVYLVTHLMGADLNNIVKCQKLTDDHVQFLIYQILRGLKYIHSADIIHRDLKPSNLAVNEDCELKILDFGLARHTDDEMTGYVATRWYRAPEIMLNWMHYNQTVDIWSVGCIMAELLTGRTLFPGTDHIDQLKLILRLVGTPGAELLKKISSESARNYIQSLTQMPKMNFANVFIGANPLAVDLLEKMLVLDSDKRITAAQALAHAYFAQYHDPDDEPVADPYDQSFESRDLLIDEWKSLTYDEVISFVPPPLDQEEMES

| SMILES | IC50 (MAPK14 (human) [1]) [nM] | IC50 (MAPK14 (human) [2]) [nM] | IC50 (MAPK14 (human) [3]) [nM] | IC50 (MAPK14 (human) [4]) [nM] | IC50 (MAPK14 (human) [5]) [nM] |
| --- | --- | --- | --- | --- | --- |
| COc1ccc(-c2cccc(C(C(N)=O)c3c(Cl)cccc3Cl)n2)cc1 (centres undefined) | > 500 | – | – | – | – |
| Cc1cc(F)ccc1-c1cccc(N(C(N)=O)c2cc3c(cc2Cl)OCO3)n1 | – | > 500 | > 500 | > 500 | – |
| O=C1NCN2N=C(Sc3ccccc3Br)C=CC2=C1c1c(Cl)cccc1Cl | – | > 500 | 250 to 500 | > 500 | – |
| NC(=O)C(c1cccc(-c2ccccc2CNCCO)n1)c1c(Cl)cccc1Cl (centres undefined) | > 500 | – | – | – | > 500 |
| CN(C)C=Nc1ccc(C2=C3C=CC(Sc4ccc(F)cc4Cl)=NN3CNC2=O)c(Cl)c1 | – | 250 to 500 | 250 to 500 | > 500 | – |
| Nc1cc(F)ccc1SC1=NN2CNC(=O)C(c3c(Cl)cccc3Cl)=C2C=C1 | – | 250 to 500 | < 250 | 250 to 500 | – |
| COc1ccc(C2=C3C=CC(Sc4ccc(F)cc4)=NN3CNC2=O)c(Cl)c1 | – | > 500 | > 500 | > 500 | > 500 |
| NC(=O)C(c1cccc(-c2ccc(Cl)cc2Cl)n1)c1c(Cl)cccc1Cl (centres undefined) | – | > 500 | > 500 | > 500 | – |
| NC(=O)C(c1cccc(-c2ccccc2CN2CCCC2)n1)c1c(Cl)cccc1Cl (centres undefined) | 100 to 500 | – | – | – | > 500 |
| Cc1cc(F)ccc1-c1cccc(C(C(N)=O)c2c(Cl)cccc2Cl)n1 (centres undefined) | – | > 500 | > 500 | > 500 | – |
| CC(=O)Nc1ccc(C2=C3C=CC(Sc4ccc(F)cc4)=NN3CNC2=O)c(Cl)c1 | – | > 500 | > 500 | > 500 | – |
| NC(=O)C(c1cccc(-c2ccccc2C=NO)n1)c1c(Cl)cccc1Cl (centres undefined) | – | > 500 | > 500 | > 500 | > 500 |
| Cc1ccc(Sc2ccc3c(-c4c(Cl)cccc4Cl)c(=O)ncn3n2)cc1C | > 500 | – | – | – | > 500 |
| COc1ccccc1-c1c(=O)ncn2nc(Sc3ccccc3)ccc12 | > 500 | – | – | – | > 500 |
| NC(=O)N(c1cccc(-c2ccccc2)n1)c1c(Cl)cccc1Cl | – | > 500 | > 500 | > 500 | – |
| O=c1ncn2nc(Sc3ccccc3)ccc2c1-c1ccccc1Cl | > 500 | – | – | – | > 500 |
| NC(=O)Nc1cc(F)ccc1SC1=NN2CNC(=O)C(c3c(Cl)cccc3Cl)=C2C=C1 | > 500 | – | – | – | > 500 |
| O=c1ncn2nc(Sc3ccccn3)ccc2c1-c1c(Cl)cccc1Cl | – | > 500 | – | – | > 500 |
| COc1cc(Cl)c(C2=C3C=CC(Sc4ccc(F)cc4)=NN3CNC2=O)cc1OC | – | – | – | – | > 500 |
| Cc1ccc(SC2=NN3CNC(=O)C(c4c(Cl)cccc4Cl)=C3C=C2)c(C)c1 | – | > 500 | > 500 | > 500 | – |
| Cc1c(Sc2ccccc2)nn2cnc(=O)c(-c3c(Cl)cccc3Cl)c2c1C | > 500 | – | – | – | > 500 |
| O=C1NCN2N=C(Sc3ccccc3O)C=CC2=C1c1c(Cl)cccc1Cl | – | 250 to 500 | < 250 | 250 to 500 | – |
| Cc1ccccc1-c1c(=O)ncn2nc(Sc3ccccc3)ccc12 | > 500 | – | – | – | > 500 |
| O=C(CCl)Nc1ccc(C2=C3C=CC(Sc4ccc(F)cc4)=NN3CNC2=O)c(Cl)c1 | – | > 500 | > 500 | > 500 | – |
| NC(=O)C(c1ccc(C(O)c2ccccc2)cn1)c1c(Cl)cccc1Cl (centres undefined) | 100 to 500 | – | – | – | – |
| NC(=O)C(c1cccc(-c2ccccc2CO)n1)c1c(Cl)cccc1Cl (centres undefined) | – | > 500 | > 500 | > 500 | – |
| Cc1cc(F)ccc1-c1cccc(C(C(N)=O)c2c(Cl)cc(N)cc2Cl)n1 (centres undefined) | – | > 500 | > 500 | > 500 | – |

| SMILES | IC50 (MAPK14 (human) [1]) [nM] | IC50 (MAPK14 (human) [2]) [nM] | IC50 (MAPK14 (human) [3]) [nM] | IC50 (MAPK14 (human) [4]) [nM] | IC50 (MAPK14 (human) [5]) [nM] |
| --- | --- | --- | --- | --- | --- |
| Nc1cc(C(F)(F)F)ccc1SC1=NN2CNC(=O)C(c3c(Cl)cccc3Cl)=C2C=C1 | 100 to 500 | – | – | – | > 500 |
| O=C1NCN2N=C(Sc3ccccc3CO)C=CC2=C1c1c(Cl)cccc1Cl | – | 250 to 500 | < 250 | < 250 | – |
| NC(=O)N(c1cccc(-c2ccc(F)cc2)n1)c1c(F)cccc1F | – | > 500 | > 500 | > 500 | – |
| N#Cc1ccccc1SC1=NN2CNC(=O)C(c3c(Cl)cccc3Cl)=C2C=C1 | – | > 500 | > 500 | > 500 | – |
| Cc1ccccc1-c1cccc(C(C(N)=O)c2c(Cl)cccc2Cl)n1 (centres undefined) | – | > 500 | > 500 | > 500 | > 500 |
| Cc1ccccc1-c1cccc(N(C(N)=O)c2c(Cl)cccc2Cl)n1 | – | > 500 | > 500 | > 500 | – |
| NC(=O)C(c1ccc(C(=O)c2ccccc2)cn1)c1c(Cl)cccc1Cl (centres undefined) | > 500 | – | – | – | – |
| O=c1ncn2nc(Sc3ccccc3)ccc2c1-c1ccc(Cl)c(Cl)c1 | > 500 | – | – | – | > 500 |
| O=C1NCN2N=C(Sc3ccc(F)cc3)C=CC2=C1c1cc2c(cc1Cl)OCO2 | – | 250 to 500 | 250 to 500 | > 500 | – |
| Cc1cccc(-c2cccc(C(C(N)=O)c3c(Cl)cccc3Cl)n2)c1 (centres undefined) | – | > 500 | > 500 | > 500 | > 500 |
| CC(C)c1ccccc1Sc1ccc2c(-c3c(Cl)cccc3Cl)c(=O)ncn2n1 | > 500 | – | – | – | > 500 |
| O=C1NCN2N=C(Sc3ccc(F)cc3)C=CC2=C1c1c(Cl)cccc1Cl | – | > 500 | 250 to 500 | – | – |
| O=c1ncn2nc(Sc3ccc(F)cc3Cl)ccc2c1-c1c(Cl)cccc1Cl | – | 250 to 500 | 250 to 500 | 250 to 500 | – |
| Cc1ccccc1SC1=NN2CNC(=O)C(c3c(Cl)cccc3Cl)=C2C=C1 | – | > 500 | 250 to 500 | – | – |
| Nc1ccc(C2=C3C=CC(Sc4ccc(F)cc4)=NN3CNC2=O)c(Cl)c1 | – | > 500 | 250 to 500 | > 500 | – |
| Cc1ccccc1-c1cccc(N(C(N)=O)c2c(F)cccc2F)n1 | – | > 500 | 250 to 500 | > 500 | – |
| O=C(CN1CCOCC1)Nc1ccc(C2=C3C=CC(Sc4ccc(F)cc4)=NN3CNC2=O)c(Cl)c1 | – | > 500 | 250 to 500 | > 500 | – |
| Nc1ccc(Cl)c(C2=C3C=CC(Sc4ccc(F)cc4)=NN3CNC2=O)c1Cl | – | > 500 | > 500 | > 500 | – |
| COc1ccc(C2=C3C=CC(Sc4ccc(F)cc4)=NN3CNC2=O)c(Cl)c1OC | – | > 500 | > 500 | > 500 | – |
| Cc1cc(F)ccc1-c1cccc(N(C(N)=O)c2c(Cl)cccc2Cl)n1 | – | > 500 | 250 to 500 | > 500 | – |
| O=C1NCN2N=C(Sc3ccc(F)cc3Cl)C=CC2=C1c1c(Cl)cccc1Cl | – | 250 to 500 | < 250 | 250 to 500 | – |
| Cc1cc(Cl)ccc1SC1=NN2CNC(=O)C(c3c(Cl)cccc3Cl)=C2C=C1 | – | > 500 | 250 to 500 | 250 to 500 | – |
| NC(=O)C(c1cccc(-c2ccccc2)n1)c1c(Cl)cccc1Cl (centres undefined) | – | > 500 | > 500 | > 500 | – |
| Cc1cc(F)ccc1-c1cccc(N(C(N)=O)c2c(F)cccc2F)n1 | – | 250 to 500 | 250 to 500 | 250 to 500 | – |
| NC(=O)C(c1cccc(-c2cccc3ccccc23)n1)c1c(Cl)cccc1Cl (centres undefined) | – | > 500 | > 500 | > 500 | – |
| O=C1NCN2N=C(Sc3ccc(F)cc3Cl)C=CC2=C1c1cc2c(cc1Cl)OCO2 | – | > 500 | 250 to 500 | > 500 | – |
| Nc1ccccc1SC1=NN2CNC(=O)C(c3c(Cl)cccc3Cl)=C2C=C1 | – | > 500 | > 500 | > 500 | – |
